Key:
[1] = tested on: Tat-mediated LTR transcription; assay: Dual-reporter assay, F-Luc (Tat-mediated LTR transcription) in bl-DTR cells; type: cell-based, HIV-1; conditions: Human immunodeficiency virus 1, 24 h, read-out: IC50 of F-Luc (Tat)
Procedure: Fig 1 (A) (Top panel) Schematic representation of the primary compound screening using a dual-reporter system. […] (B). […] (Top graphs) bl-DTR cells (1 × 10^4) were treated with twofold serial dilutions of each compound before doxycycline (Dox) addition (final concentration, 50 ng/mL). After 24 h of treatment, the activities of firefly luciferase (F-Luc, red line) and Renilla luciferase (R-Luc, blue line) were determined using the Dual-Glo Luciferase assay system. (Bottom graphs) TZM-bl cells were treated with each indicated compound and subsequently infected with the HIV-1NL4-3 strain at a multiplicity of infection (MOI) of 1. At 48 h after infection, the viral infectivity (purple line) and cell viability (green line) were determined using the Bright-Glo luciferase assay kit and the PrestoBlue Cell Viability Reagent, respectively. […] (C). […] The targeted moieties for the SAR study are marked with dotted-circle lines.
The Tzm-bl-derived dual Tat reporter; TZM-bl/Tat/Rluc (bl-DTR) cells were established from TZM-bl cells using two Dox-inducible lentiviral expression cassettes cloned with Flag-tagged Tat86 and the R-Luc gene, as described in our previous study ([11]). TZM-bl, A3.01, J1.1, and J-Lat 6.3 cells as well as the HIV-1 molecular clone pNL4-3, pNL(AD8), ARV-resistant HIV-1 strains, and HIV-1NL43-IRES-eGFP (pBR43IeG-nef^+, gifted by Dr. Frank Kirchhoff) ([52]) were provided by the National Institute of Health HIV Reagent Program (NIH, Bethesda, MD, USA). HeLa (CCL-2) and 293T (CRL-3216) cell lines were purchased from the American Type Culture Collection (ATCC, Manassas, VA, USA). The bl-DTR, TZM-bl, HeLa, and 293T cells were cultured in Dulbecco’s modified Eagle’s medium supplemented with 1% penicillin–streptomycin and 10% (vol/vol) heat-inactivated fetal bovine serum (all from Gibco-BRL, Gaithersburg, MD, USA), and 1 µg/mL of puromycin and 200 µg/mL of zeocin were additionally supplemented for the bl-DTR cells. PBMCs were purchased from AllCells (Alameda, CA, USA) and cultured as previously described ([12]). The information on ARV-resistant HIV-1 strains was described in previous reports as follows: NNRTI-resistant 12241 and 12243 ([53]); NRTI-resistant 7396, 7406, and 7407 ([54]); INSTI-resistant 11847 and 11849 ([55], [56]); and PI-resistant 11800 and 11803 ([57]). Each molecular HIV-1 clone was transfected to 293T cells, as previously described ([58]), to obtain infectious HIV-1 particles. Virus-containing cell culture supernatants were collected 3 days after transfection, and filtered through a 0.45-µm membrane filter (Millipore Sigma, Burlington, MA, USA) to remove cell debris. The viral titration was performed as described previously ([59]) with some minor modifications. In brief, 1 × 10^4 TZM-bl cells seeded in 96-well plates were infected with 200 µL of virus-containing medium diluted serially twofold. The incubation was for 2 days and the experiment was performed in triplicate; the infection time minimized the virus spread ([59]). The titration of the infectious viral particles was performed with a ß-Gal staining assay using the ßeta-Galactosidase Staining Kit (Mirus Bio, Madison, WI, USA) following the manufacturer’s protocols. In brief, the infected cells were washed with phosphate-buffered saline (PBS) and fixed using a Cell Fixative Working solution. The cells were washed with PBS and stained using the Cell Staining Working Solution containing X-gal. The infected blue-colored cells were counted under a microscope (100× magnification). The infectious virus titer was determined as a mean value of blue-colored cells count × dilution factor and used for determining the multiplicity of infection (MOI) in each infection experiment.

[2] = tested on: proviral DNA integrated to the host chromosome; assay: Integrated proviral DNA, nested Alu-PCR in A3.01 cells; type: cell-based, HIV-1; conditions: compounds 5 µM, 40 h after infection
Procedure: Fig 5 (A) Time-of-addition assay. […] Subsequently, the cells were treated with the compounds at the indicated time points (0, 1, 2, 4, 6, 8, 10, 12, 24, 30, 36, 42, and 48 h) after HIV-1 infection. The final concentrations of compounds are described in Materials and Methods. Viral activity according to the timing of drug addition was measured as F-Luc activity at 54 h after infection. The relative activities are represented as the mean ± SD (n = 3) compared with the activity observed 54 h post-infection. The relative time frames associated with each HIV-1 infection step are defined based on the time frame of susceptibility to the drug that blocks that particular infection step. […] At 16 h after infection, the viral reverse transcription (RT) product (viral cDNA) level was determined by quantitative real-time PCR (RT-qPCR) using gag and 18S rRNA primer sets and represented as the mean ± SD (n = 3) normalized against the amount of the 18S rRNA compared with the DMSO control. **P < 0.01 compared with the vehicle (DMSO). (C) An in vitro integrase (IN) assay was performed with 10 µM of the indicated compounds following the manufacturer’s protocol. **P < 0.01 compared with vehicle (DMSO). (D) A3.01 cells were infected with HIV-1 upon treatment with the indicated compounds (5 µM) and ARVs (EFV and DTG) as the experimental controls. At 40 h after infection, cellular chromosomal DNA was purified, and the integrated proviral DNA was detected through nested Alu-PCR amplification.
The activity of HIV-1 RT was determined as previously described with some minor modifications ([66][–][68]). In brief, HIV-1NL4-3 obtained from plasmid transfection was treated with DNase I (2.5 U/mL) for 2 h at 37°C to remove the plasmid DNA. […] Sixteen hours after infection, the cell cytosolic DNA was isolated under RNase A treatment, and the RT products (cytosolic viral cDNA) were quantified using RT-qPCR and the following primers: gag forward, 5′-[…]-3′, gag reverse, 5′-[…]-3′; 18S rRNA forward, 5′-[…]-3′, 18S rRNA reverse, 5′-[…]-3′. The relative levels of RT products were analyzed using the ΔΔCt-method, as described above. In vitro integrase activity was determined using an HIV-1 integrase assay kit (XpressBio, Frederick, MD, USA) as previously described ([12]). In brief, a 96-well plate coated with donor substrate DNA was blocked, and HIV-1 integrase was then added to the plate. Subsequently, the compounds and target substrate DNA were added to the plate and incubated for 30 min at 37°C. The plate was washed and subsequently incubated with horse radish peroxidase. Integrase activity was measured by the peroxidase activity with the substrate at an optical density of 450 nm. The experiment was performed in triplicates. Detection of integrated proviral DNA was performed as previously described ([69]) with some minor modifications. […] Chromosomal DNA was purified using the G-Spin DNA extraction kit (Intron Bio Tech, Seongnam-si, Gyeonggi-do, Republic of Korea). The integrated proviral HIV-1 DNA was detected by nested Alu-PCR amplification using the following primers: first round PCR, Alu forward, 5′-[…]-3′, pol reverse, 5′-[…]-3′; second round PCR, gag forward, 5′-[…]-3′, pol reverse. gapdh was used as the control gene.

Structure (SMILES)	IC50 [1]	nested Alu-PCR band for integrated proviral DNA [2]
CC(C)[C@]12O[C@H]1[C@@H]1O[C@]13[C@]1(O[C@H]1C[C@H]1C4=C(CC[C@@]13C)C(=O)OC4)[C@@H]2O [triptolide, reference compound]	0.82 ± 0.02 nM	–
C[C@@H]1CCO[C@H]2Cn3cc(C(=O)NCc4ccc(F)cc4F)c(=O)c(O)c3C(=O)N12 [DTG, dolutegravir, reference compound]	–	not detected
Cc1[nH]c2ccc(-c3nnc(SCC(=O)N4CCCC4)o3)cc2c1C [Compound 13, 2-((5-(2,3-Dimethyl-1H-indol-5-yl)-1,3,4-oxadiazol-2-yl)thio)-1-(pyrrolidin-1-yl)ethan-1-one]	300 ± 30 nM	observed
O=C1Nc2ccc(Cl)cc2[C@@](C#CC2CC2)(C(F)(F)F)O1 [EFV, efavirenz, reference compound]	–	not detected
Cc1[nH]c2ccc(-c3nnc(SCC(=O)N4CCCCC4)o3)cc2c1C [Compound 9, 2-((5-(2,3-Dimethyl-1H-indol-5-yl)-1,3,4-oxadiazol-2-yl)thio)-1-(piperidin-1-yl)ethan-1-one]	140 nM	observed
